In article PMC4925217 (FEBS letters, 2016):

Columns and labels:
[1] = target: T1, ScRR (ScRR1 with ScRR2•ScRR4) (Saccharomyces cerevisiae, UniProt P21524); assay: [3H]CDP reduction assay, borate chromatography, isotope counting; format: biochemical; details: ATP effector, 0.05 to 1 mM CDP (hexamer); labelled compound; C-site
T1 sequence (P21524 1-888): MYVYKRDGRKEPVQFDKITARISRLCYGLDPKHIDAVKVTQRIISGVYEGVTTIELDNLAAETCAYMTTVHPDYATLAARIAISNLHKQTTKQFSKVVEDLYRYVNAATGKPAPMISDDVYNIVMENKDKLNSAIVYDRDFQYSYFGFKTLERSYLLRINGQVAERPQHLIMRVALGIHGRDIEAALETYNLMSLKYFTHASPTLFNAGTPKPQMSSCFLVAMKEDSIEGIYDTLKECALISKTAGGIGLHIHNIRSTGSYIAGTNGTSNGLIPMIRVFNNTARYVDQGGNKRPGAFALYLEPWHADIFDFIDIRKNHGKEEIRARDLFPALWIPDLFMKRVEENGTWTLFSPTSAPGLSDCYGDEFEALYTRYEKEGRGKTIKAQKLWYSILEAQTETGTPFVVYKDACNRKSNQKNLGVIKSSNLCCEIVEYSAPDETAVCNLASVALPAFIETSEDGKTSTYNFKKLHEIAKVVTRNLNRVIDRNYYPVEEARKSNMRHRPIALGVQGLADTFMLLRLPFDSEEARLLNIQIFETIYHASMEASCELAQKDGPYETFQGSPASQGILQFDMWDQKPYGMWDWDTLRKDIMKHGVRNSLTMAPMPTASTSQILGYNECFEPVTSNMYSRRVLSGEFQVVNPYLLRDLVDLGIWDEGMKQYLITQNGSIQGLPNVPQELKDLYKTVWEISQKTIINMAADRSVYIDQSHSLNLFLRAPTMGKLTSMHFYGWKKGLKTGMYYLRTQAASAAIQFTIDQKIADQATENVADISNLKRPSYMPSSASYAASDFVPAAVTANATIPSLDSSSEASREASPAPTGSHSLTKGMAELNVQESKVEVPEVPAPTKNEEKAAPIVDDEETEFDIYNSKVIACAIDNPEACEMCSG
T1 sequence (P09938 1-399 partner): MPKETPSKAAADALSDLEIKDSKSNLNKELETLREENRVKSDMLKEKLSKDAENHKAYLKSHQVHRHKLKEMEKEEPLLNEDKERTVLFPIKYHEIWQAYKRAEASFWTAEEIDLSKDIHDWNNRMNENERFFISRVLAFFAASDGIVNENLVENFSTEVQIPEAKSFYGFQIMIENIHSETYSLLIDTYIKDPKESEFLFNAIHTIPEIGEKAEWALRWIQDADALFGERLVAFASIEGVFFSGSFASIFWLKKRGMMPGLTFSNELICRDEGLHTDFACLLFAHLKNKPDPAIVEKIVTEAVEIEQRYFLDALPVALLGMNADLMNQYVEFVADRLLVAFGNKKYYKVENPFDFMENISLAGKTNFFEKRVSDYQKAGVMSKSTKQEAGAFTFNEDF
T1 sequence (P49723 1-345 partner): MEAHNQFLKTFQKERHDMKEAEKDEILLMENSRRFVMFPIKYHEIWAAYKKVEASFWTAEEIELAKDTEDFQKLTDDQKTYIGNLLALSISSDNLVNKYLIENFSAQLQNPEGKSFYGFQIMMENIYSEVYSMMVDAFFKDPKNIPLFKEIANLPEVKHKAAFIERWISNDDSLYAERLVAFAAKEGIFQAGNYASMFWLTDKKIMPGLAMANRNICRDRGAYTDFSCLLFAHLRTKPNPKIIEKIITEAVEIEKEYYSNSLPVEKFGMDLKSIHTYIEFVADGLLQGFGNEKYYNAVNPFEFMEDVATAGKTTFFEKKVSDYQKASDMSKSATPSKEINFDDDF

[2] = target: T1, ScRR (ScRR1 with ScRR2•ScRR4); assay: NDP reduction assay; format: biochemical; details: read-out: % inhibition at 20 μM

Row | inhibition at 20 µM [2] [%] | Compound | [3H]CDP reduction assay, borate chromatography, isotope counting [1]
1 |  | Nc1ccn([C@@H]2O[C@H](COP(=O)(O)OP(=O)(O)O)[C@@H](O)[C@H]2O)c(=O)n1 [CDP] | When ATP/CDP was used as the effector-substrate pair, [^3H]CDP concentrations were varied
2 | ~50 | Nc1ncnc2c1ncn2[C@H]1C[C@H](O)[C@@H](COP(=O)(O)OP(=O)(O)OP(=O)(O)O)O1 [dATP] | 
